{
  "source": "the supplement of paper PMC10307832",
  "assay_in_all_cases": "relative viability (nuclei count vs DMSO), 5 days (fraction); higher = more cells survive",
  "key": {"BAM7 + Palbociclib": {"compound": "CCOC1=CC=CC=C1N=NC2=C(NN(C2=O)C3=NC(=CS3)C4=CC=CC=C4)C [BAM7] + CC(=O)c1c(C)c2cnc(Nc3ccc(N4CCNCC4)cn3)nc2n(C2CCCC2)c1=O [Palbociclib] (partner 0.5 µM)", "outline": "(§1)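 Medians of duplicate plates are given as relative viability. That measure is the nuclei count in treated wells divided by the count in vehicle wells. Counts were taken on 4× images of lung cancer cell lines in 1536-well plates, 5 days after pin-tool dosing the day after seeding with one drug alone or a fixed anchor-drug dose plus five library-drug doses (not always all listed) in √10 steps.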"}, "[1]": {"compound": "CCn1c(-c2nonc2N)nc2c(C#CC(C)(C)O)ncc(OC[C@H]3CCCNC3)c21 + COc1cc2c(Oc3ccc(NC(=O)C4(C(=O)Nc5ccc(F)cc5)CC4)cc3F)ccnc2cc1OCCCN1CCOCC1 [Foretinib] (partner 0.25 µM)", "outline": "as §1"}, "[2]": {"compound": "CCn1c(-c2nonc2N)nc2c(C#CC(C)(C)O)ncc(OC[C@H]3CCCNC3)c21 + Cc1nc(Nc2ncc(C(=O)Nc3c(C)cccc3Cl)s2)cc(N2CCN(CCO)CC2)n1 [Dasatinib] (partner 0.075 µM)", "outline": "as §1"}, "[3]": {"compound": "CCn1c(-c2nonc2N)nc2c(C#CC(C)(C)O)ncc(OC[C@H]3CCCNC3)c21 + Nc1nc2[nH]cc(CCc3ccc(C(=O)N[C@@H](CCC(=O)O)C(=O)O)cc3)c2c(=O)[nH]1 [Pemetrexed] (partner 0.2 µM)", "outline": "as §1"}},
  "data": [
    {"cell line": "UMC-11", "values": [
      {"measurement": "relative viability", "setting": "BAM7 + Palbociclib; first compound 0.5 µM", "value": 0.32},
      {"measurement": "relative viability", "setting": "BAM7 + Palbociclib; first compound 5 µM", "value": 0.341},
      {"measurement": "relative viability", "setting": "BAM7 + Palbociclib; first compound 15.81 µM", "value": 0.342},
      {"measurement": "relative viability", "setting": "BAM7 + Palbociclib; first compound 50 µM", "value": 0.336},
      {"measurement": "relative viability", "setting": "[1]; first compound 0.01 µM", "value": 1.01},
      {"measurement": "relative viability", "setting": "[1]; first compound 0.03162 µM", "value": 1.06},
      {"measurement": "relative viability", "setting": "[1]; first compound 0.1 µM", "value": 1.01},
      {"measurement": "relative viability", "setting": "[1]; first compound 0.3162 µM", "value": 0.931},
      {"measurement": "relative viability", "setting": "[1]; first compound 1 µM", "value": 1.04},
      {"measurement": "relative viability", "setting": "[2]; first compound 0.01 µM", "value": 0.449},
      {"measurement": "relative viability", "setting": "[2]; first compound 0.03162 µM", "value": 0.498},
      {"measurement": "relative viability", "setting": "[2]; first compound 0.1 µM", "value": 0.438},
      {"measurement": "relative viability", "setting": "[2]; first compound 0.3162 µM", "value": 0.449},
      {"measurement": "relative viability", "setting": "[2]; first compound 1 µM", "value": 0.399},
      {"measurement": "relative viability", "setting": "[3]; first compound 0.01 µM", "value": 0.804},
      {"measurement": "relative viability", "setting": "[3]; first compound 0.03162 µM", "value": 0.758},
      {"measurement": "relative viability", "setting": "[3]; first compound 0.1 µM", "value": 0.749},
      {"measurement": "relative viability", "setting": "[3]; first compound 0.3162 µM", "value": 0.722},
      {"measurement": "relative viability", "setting": "[3]; first compound 1 µM", "value": 0.758}
    ]}
  ]
}
